# Patent US20220395539A1, “TRADITIONAL CHINESE MEDICINE COMPOSITION FOR TREATING PSORIASIS, PREPARATION METHOD THEREFOR AND USE THEREOF” (priority 2019, published 2022)
# Tested on: mice psoriasis-like skin lesion model induced by imiquimod
# Assay: mice psoriasis-like skin lesion model induced by imiquimod
# Type: in vivo, C57BL/6 mice
# Design: Pathological score Epidermal cell keratinization / Pathological score Dermal thickness / Pathological score Total score: scale not given here
# Settings: methotrexate 1 mg/kg
# Method: II. Pharmacodynamic Experiment of the Medicine Composition of the Present Application on Mice Psoriasis-Like Skin Lesion Model Induced by Imiquimod. Researching subjects: […] (2015000562136). The mice were fed with standard diet and the animal room was kept at the temperature of 23±2° C. and the humidity of 40% to 70%. […] The medium-dosage group of 9-ingredient macules-eliminating prescription: clinical equivalent dose. The low-dosage group of 9-ingredient macules-eliminating prescription: the dosage in the low-dosage group was ¼ of that in the high-dosage group. [table] Modeling method and treatment: […] Clinical symptoms: observe any clinical symptoms of each animal at the beginning and during the experiment. Any abnormal response should be recorded. […] PASI method: photos of the skin lesions were taken every day, and the erythema, scales and infiltration thickening degree at the skin lesions were scored, and the three scores were added up to obtain the total scores. […] End of experiment: after the experiment, the animals were sacrificed by CO2 deep anesthesia, and the corresponding tissues were collected. Statistics of data: the experimental data are expressed by Mean±SD, and the data between two groups are tested by T test, P<0.05 is considered as significant difference.
# [1] = Yujinyinxie tablet 0.72 g/kg, i.g. Qd
# [2] = Yujinyinxie tablet 0.72 g/kg, i.g. Qd 7 days
compound,measurement,setting,value
"CN(Cc1cnc2nc(N)nc(N)c2n1)c1ccc(C(=O)N[C@@H](CCC(=O)O)C(=O)O)cc1 [Methotrexate, methotrexate]",effect on the weight compared with the model group,"gavage 7 days, 9-ingredient 11.24, 5.62 and 2.81 g extract/kg",reduced the weight
same,BW Day l,[1],20.29 ± 0.68 g
same,"Severity index Day 4 (total score of skin lesion, PASI method)",[1],1.65 ± 0.58
same,"Severity index Day 5 (total score of skin lesion, PASI method)",[1],2.20 ± 0.48
same,"Severity index Day 6 (total score of skin lesion, PASI method)",[1],1.90 ± 0.39
same,"Severity index Day 7 (total score of skin lesion, PASI method)",[1],3.60 ± 0.63
same,BW Day 8,[2],17.99 ± 2.71 g
same,Pathological score Dermal inflammatory cells infiltration degree,[2],"1.10 ± 0.32,"
same,Pathological score Dermal thickness,[2],1.50 ± 0.53
same,Pathological score Epidermal cell keratinization,[2],1.60 ± 0.84
same,Pathological score Epidermal thickness,[2],"1.60 ± 0.52,"
same,Pathological score Total score,[2],5.80 ± 1.14
same,"Severity index Day 8 (total score of skin lesion, PASI method)",[2],3.05 ± 1.82
